# Laboratory results: US8278319B2, “Substituted spiroamine compounds” (Gruenenthal GmbH, priority 2008, dated 2012)
# Columns and labels:
# human B1R = target: T1, human B1R (Homo sapiens, UniProt P46663); test: Functional investigation on the bradykinin receptor 1 (B1R), FLIPR Ca2+ assay, hB1R cells; format: cell-based; conditions: % inhibition human B1R at 10 μM; CHO K1 cells transfected with human B1R; agonist Lys-Des-Arg9 bradykinin at EC80; read-out: % Inh. (hum. B1R) 10 μM
# T1 construct: expressed in transfected cells; host or cells: CHO K1 cells
# T1 sequence (P46663 1-353): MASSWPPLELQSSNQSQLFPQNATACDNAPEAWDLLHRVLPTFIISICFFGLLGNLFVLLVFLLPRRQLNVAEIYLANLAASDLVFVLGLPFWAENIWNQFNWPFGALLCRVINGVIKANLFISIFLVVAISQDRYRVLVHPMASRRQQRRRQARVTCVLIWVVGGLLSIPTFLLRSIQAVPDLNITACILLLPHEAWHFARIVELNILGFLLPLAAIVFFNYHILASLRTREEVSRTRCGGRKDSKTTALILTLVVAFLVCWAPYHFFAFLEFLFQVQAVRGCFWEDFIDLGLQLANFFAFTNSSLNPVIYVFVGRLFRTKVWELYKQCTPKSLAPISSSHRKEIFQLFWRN
# Method: (§1) The agonistic or antagonistic action of substances can be quantified on the bradykinin receptor 1 (B1R) of the human and rat species with ectopically expressing cell lines (CHO K1 cells) and with the aid of a Ca^2+-sensitive dye (Fluo-4) using a fluorescent imaging plate reader (FLIPR). The indication in % activation is based on the Ca^2+ signal after addition of Lys-Des-Arg^9 bradykinin (0.5 nM) or Des-Arg^9 bradykinin (100 nM). Antagonists lead to a suppression of the Ca^2+ influx following administration of the agonist. The % inhibition in comparison with the maximum achievable inhibition is indicated.
# (§2) The agonistic or antagonistic action of substances can be determined on the bradykinin 1 receptor (B1R) of the human and rat species with the following assay. According to this assay, the Ca^2+ inflow through the channel is quantified with the aid of a Ca^2+-sensitive dye (Fluo-4 type, Molecular Probes Europe BV, Leiden, The Netherlands) in a fluorescent imaging plate reader (FLIPR, Molecular Devices, Sunnyvale, USA).
# (§3) Chinese hamster ovary cells (CHO K1 cells) which are stably transfected with the human B1R gene (hB1R cells) or the B1R gene of the rat (rB1R cells) are used. For functional investigations, these cells are plated-out onto black 96-well plates with a clear base (BD Biosciences, Heidelberg, Germany or Greiner, Frickenhausen, Germany) in a density of 20,000-35,000 cells/well. Overnight, the cells are incubated at 37° C. and 5% CO2 in culture medium (hB1R cells: Nutrient Mixture Ham's F12, Gibco Invitrogen GmbH, Karlsruhe, Germany or DMEM, Sigma-Aldrich, Taufkirchen, Germany; rB1R cells: D-MEM/F12, Gibco Invitrogen, Karlsruhe, Germany) with 10 vol. % FBS (foetal bovine serum, Gibco Invitrogen GmbH, Karlsruhe, Germany or PAN Biotech GmbH, Aidenbach, Germany). On the following day the cells are loaded with 2.13 μM Fluo-4 (Molecular Probes Europe BV, Leiden, The Netherlands) in HBSS buffer (Hank's buffered saline solution, Gibco Invitrogen GmbH, Karlsruhe, Germany) with 2.5 mM probenecid (Sigma-Aldrich, Taufkirchen, Germany) and 10 mM HEPES (Sigma-Aldrich, Taufkirchen, Germany) for 60 min at 37° C. The plates are the washed twice with HBSS buffer, and HBSS buffer which additionally contains 0.1% BSA (bovine serum albumin; Sigma-Aldrich, Taufkirchen, Germany), 5.6 mM glucose and 0.05% gelatine (Merck KGaA, Darmstadt, Germany) is added. After a further incubation of 20 minutes at room temperature, the plates are inserted into the FLIPR for Ca^2+ measurement. Alternatively they are washed with buffer A (15 mM HEPES, 80 mM NaCl, 5 mM KCl, 1.2 mM CaCl2, 0.7 mM MgSO4, 2 g/l glucose, 2.5 mM probenecid) and loaded with buffer A with added 2.5 μM Fluo-4 and 0.025% Pluronic F127 (Sigma-Aldrich, Taufkirchen, Germany). The cells are then washed twice with buffer A and incubated for 30 minutes with buffer A, which additionally contains 0.05% BSA and 0.05% gelatine, at room temperature and then used for Ca^2+ measurement in the FLIPR.
# (§4) The Ca^2+-dependent fluorescence is measured here before and after addition of substances (λex=488 nm, λem=540 nm). The quantification is performed by measuring the highest fluorescence intensity (FC, fluorescence counts) over time.
# (§5) The FLIPR protocol comprises two additions of substance. Test substances (10 μM) are first pipetted onto the cells and the Ca^2+ inflow is compared with the control (hB1R: Lys-Des-Arg^9 bradykinin>=50 nM; rB1R: Des-Arg^9 bradykinin 10 μM). The value in % activation based on the Ca^2+ signal after addition of Lys-Des-Arg^9 bradykinin (>=50 nM) or Des-Arg^9 bradykinin (10 μM) is obtained therefrom. After incubation for 10-20 minutes, Lys-Des-Arg^9 bradykinin (hB1R) or Des-Arg^9 bradykinin (rB1R) is applied in the EC80 concentration and the inflow of Ca^2+ is likewise determined. Antagonists lead to a suppression of the Ca^2+ inflow. The % inhibition in comparison with the maximum achievable inhibition is calculated. […]
# rat B1R = target: T2, rat B1R (Rattus norvegicus, UniProt P97583); test: Functional investigation on the bradykinin receptor 1 (B1R), FLIPR Ca2+ assay, rB1R cells; format: cell-based; conditions: % inhibition rat B1R at 10 μM; CHO K1 cells transfected with rat B1R; agonist Des-Arg9 bradykinin at EC80; read-out: % Inh. (rat B1R) 10 μM
# T2 construct: expressed in transfected cells; host or cells: CHO K1 cells
# T2 sequence (P97583 1-337): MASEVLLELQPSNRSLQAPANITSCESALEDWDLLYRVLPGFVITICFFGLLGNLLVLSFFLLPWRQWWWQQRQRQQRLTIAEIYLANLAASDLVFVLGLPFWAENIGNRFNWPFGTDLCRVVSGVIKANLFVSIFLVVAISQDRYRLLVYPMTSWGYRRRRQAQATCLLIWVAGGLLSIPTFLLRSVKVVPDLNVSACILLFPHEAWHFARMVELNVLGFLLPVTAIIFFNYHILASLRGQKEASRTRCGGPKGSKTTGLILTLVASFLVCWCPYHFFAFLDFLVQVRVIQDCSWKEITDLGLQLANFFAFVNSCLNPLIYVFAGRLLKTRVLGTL
# Method: as §1, §2, §3, §4, §5
SMILES,inhibition at 10 µM (human B1R) [%],inhibition at 10 µM (rat B1R) [%]
"COc1cc(C)c(S(=O)(=O)N2CCCCC2COCC(=O)N2CCC3(CC2)CCC(c2cccs2)(N(C)C)CC3)c(C)c1 (stereo not drawn) [CC-11, 1-(3-Dimethylamino-3-thiophen-2-yl-9-azaspiro[5.5]undecan-9-yl)-2-[[1-[(4-rnethoxy-2,6-dimethyl-phenyl)sulfonyl]-piperidin-2-yl]-methoxy]-ethanone]",100,98
"COc1cc(C)c(S(=O)(=O)N(CCOCC(=O)N2CCC3(CC2)CCC(c2cccs2)(N(C)C)CC3)C2CC2)c(C)c1 [CC-12, N-Cyclopropyl-N-[2-[2-(3-dimethylamino-3-thiophen-2-yl-9-azaspiro[5.5]undecan-9-yl)-2-oxo-ethoxy]-ethyl]-4-methoxy-2,6-dimethyl-benzenesulfonic acid amide]",100,97
"Cc1cccc(Cl)c1S(=O)(=O)N1CCCCC1COCC(=O)N1CCC2(CC1)CCC(c1cccs1)(N(C)C)CC2 (stereo not drawn) [CC-13, 2-[[1-[(2-Chloro-6-methyl-phenyl)sulfonyl]-piperidin-2-yl]-methoxy]-1-(3-dimethylamino-3-thiophen-2-yl-9-azaspiro[5.5]undecan-9-yl)-ethanone]",100,98
"Cc1cc(S(=O)(=O)N2CCCCC2CCC(=O)N2CCC3(CC2)CCC(c2cccs2)(N(C)C)CC3)c(C)cc1Cl (stereo not drawn) [CC-14, 3-[1-[(4-Chloro-2,5-dimethyl-phenyl)sulfonyl]-piperidin-2-yl]-1-(3-dimethylamino-3-thiophen-2-yl-9-azaspiro[5.5]undecan-9-yl)-propan-1-one]",99,101
"CN(C)C1(c2cccs2)CCC2(CCN(C(=O)CC(NS(=O)(=O)c3ccc4ccccc4c3)c3ccccc3)CC2)CC1 (stereo not drawn) [CC-15, N-[3-(3-Dimethylamino-3-thiophen-2-yl-9-azaspiro[5.5]undecan-9-yl)-3-oxo-1-phenyl-propyl]-naphthalene-2-sulfonic acid amide]",69,100
"COc1cc(C)c(S(=O)(=O)N2CCCCC2CCCC(=O)N2CCC3(CC2)CCC(c2cccs2)(N(C)C)CC3)c(C)c1 (stereo not drawn) [CC-16, 1-(3-Dimethylamino-3-thiophen-2-yl-9-azaspiro[5.5]undecan-9-yl)-4-[1-[(4-methoxy-2,6-dimethyl-phenyl)sulfonyl]-piperidin-2-yl]-butan-1-one]",99,102
"COc1cc(C)c(S(=O)(=O)N2CCCCC2COCC(=O)N2CCC3(CC2)CCC(c2ccccc2)(N2CCCC2)CC3)c(C)c1 (stereo not drawn) [Compound 1, 2-((1-(4-Methoxy-2,6-dimethylphenylsulfonyl)piperidin-2-yl)methoxy)-1-(9-phenyl-9-(pyrrolidin-1-yl)-3-azaspiro[5.5]undecan-3-yl)ethanone]",100,92
"COc1cc(C)c(S(=O)(=O)N2CCCC[C@H]2COCC(=O)N2CCC3(CC2)CCC(c2ccccc2)(N(C)C)CC3)c(C)c1 [Compound 2, 1-(9-(Dimethylamino)-9-phenyl-3-azaspiro[5.5]undecan-3-yl)-2-(((S)-1-(4-methoxy-2,6-dimethylphenylsulfonyl)piperidin-2-yl)methoxy)ethanone]",100,94
"COc1cc(C)c(S(=O)(=O)N(CCOCC(=O)N2CCC3(CC2)CCC(c2ccccc2)(N(C)C)CC3)C2CC2)c(C)c1 [Compound 3, N-Cyclopropyl-N-(2-(2-(9-(dimethylamino)-9-phenyl-3-azaspiro[5.5]undecan-3-yl)-2-oxoethoxy)ethyl)-4-methoxy-2,6-dimethylbenzenesulfonamide]",100,102
"COc1cc(C)c(S(=O)(=O)N2c3ccccc3C[C@H]2COCC(=O)N2CCC3(CC2)CCC(c2ccccc2)(N(C)C)CC3)c(C)c1 [Compound 4, 1-(9-(Dimethylamino)-9-phenyl-3-azaspiro[5.5]undecan-3-yl)-2-(((S)-1-(4-methoxy-2,6-dimethylphenylsulfonyl)indolin-2-yl)methoxy)ethanone]",98,102
"CN(C)C1(c2ccccc2)CCC2(CCN(C(=O)C[C@@H](NS(=O)(=O)c3ccc4ccccc4c3)c3ccccc3)CC2)CC1 [Compound 5, N-((1R)-3-(9-(Dimethylamino)-9-phenyl-3-azaspiro[5.5]undecan-3-yl)-3-oxo-1-phenylpropyl)naphthalene-2-sulfonamide]",77,99
"Cc1cccc(Cl)c1S(=O)(=O)N1CCCC[C@H]1COCC(=O)N1CCC2(CC1)CCC(c1ccccc1)(N(C)C)CC2 [Compound 6, 2-(((S)-1-(2-Chloro-6-methylphenylsulfonyl)piperidin-2-yl)methoxy)-1-(9-(dimethylamino)-9-phenyl-3-azaspiro[5.5]undecan-3-yl)ethanone]",100,97
"Cc1cc(S(=O)(=O)N2CCCCC2CCC(=O)N2CCC3(CC2)CCC(c2ccccc2)(N(C)C)CC3)c(C)cc1Cl (stereo not drawn) [Compound 7, 3-(1-(4-Chloro-2,5-dimethylphenylsulfonyl)piperidin-2-yl)-1-(9-(dimethylamino)-9-phenyl-3-azaspiro[5.5]undecan-3-yl)propan-1-one]",98,97
"COc1cc(C)c(S(=O)(=O)N2CCCCC2CCCC(=O)N2CCC3(CC2)CCC(c2ccccc2)(N(C)C)CC3)c(C)c1 (stereo not drawn) [Compound 8, 1-(9-(Dimethylamino)-9-phenyl-3-azaspiro[5.5]undecan-3-yl)-4-(1-(4-methoxy-2,6-dimethylphenylsulfonyl)piperidin-2-yl)butan-1-one]",98,98
"CN(C)C1(c2ccccc2)CCC2(CCN(C(=O)CC3CCCCN3S(=O)(=O)c3cccc(C(F)(F)F)c3)CC2)CC1 (stereo not drawn) [Compound 9, 1-(9-(Dimethylamino)-9-phenyl-3-azaspiro[5.5]undecan-3-yl)-2-(1-(3-(trifluoromethyl)phenylsulfonyl)piperidin-2-yl)ethan-1-one]",92,38
